Source: patent US20170029366A1, “INHIBITORS OF HISTONE LYSINE SPECIFIC DEMETHYLASE (LSD1) AND HISTONE DEACETYLASES (HDACS)” (THE JOHNS HOPKINS UNIVERSITY, priority 2014, published 2017)
Several values for one entry are separate records, joined by “and”; a condition that tells them apart may be missing. Equal entries are not always repeated.

Columns and labels:
[1] = molecular target: T1, MAO-A (Homo sapiens, UniProt P21397); experiment: MAO-A activity and inhibition assay (peroxidase-coupled, tyramine); assay type: biochemical
T1 construct: purchased Sigma M 7316
T1 sequence (P21397 1-527): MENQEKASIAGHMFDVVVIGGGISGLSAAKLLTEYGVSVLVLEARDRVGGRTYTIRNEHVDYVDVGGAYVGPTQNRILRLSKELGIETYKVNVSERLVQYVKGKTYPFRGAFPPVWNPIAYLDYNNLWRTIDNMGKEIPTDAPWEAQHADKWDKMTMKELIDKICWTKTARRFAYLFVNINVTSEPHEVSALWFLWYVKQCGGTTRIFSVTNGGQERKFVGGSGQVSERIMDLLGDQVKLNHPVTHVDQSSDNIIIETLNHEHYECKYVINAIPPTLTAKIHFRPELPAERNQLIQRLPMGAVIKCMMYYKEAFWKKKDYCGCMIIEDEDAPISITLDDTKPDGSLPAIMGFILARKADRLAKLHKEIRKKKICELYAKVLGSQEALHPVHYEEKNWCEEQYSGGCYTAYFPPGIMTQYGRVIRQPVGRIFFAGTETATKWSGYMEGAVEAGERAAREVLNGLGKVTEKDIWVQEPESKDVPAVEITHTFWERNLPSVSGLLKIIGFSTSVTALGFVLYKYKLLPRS
Experimental: (§1) MAO-A/B activity was measured spectrophotometrically using a peroxidase-coupled assay as previously described.
(§2) Each experiment was repeated at least two independent times and repeat measured values were typically within 20% of each other.

[2] = molecular target: T2, MAO-B (Homo sapiens, UniProt P27338); experiment: MAO-B activity and inhibition assay (peroxidase-coupled, tyramine); assay type: biochemical
T2 construct: purchased Sigma M 7441
T2 sequence (P27338 1-520): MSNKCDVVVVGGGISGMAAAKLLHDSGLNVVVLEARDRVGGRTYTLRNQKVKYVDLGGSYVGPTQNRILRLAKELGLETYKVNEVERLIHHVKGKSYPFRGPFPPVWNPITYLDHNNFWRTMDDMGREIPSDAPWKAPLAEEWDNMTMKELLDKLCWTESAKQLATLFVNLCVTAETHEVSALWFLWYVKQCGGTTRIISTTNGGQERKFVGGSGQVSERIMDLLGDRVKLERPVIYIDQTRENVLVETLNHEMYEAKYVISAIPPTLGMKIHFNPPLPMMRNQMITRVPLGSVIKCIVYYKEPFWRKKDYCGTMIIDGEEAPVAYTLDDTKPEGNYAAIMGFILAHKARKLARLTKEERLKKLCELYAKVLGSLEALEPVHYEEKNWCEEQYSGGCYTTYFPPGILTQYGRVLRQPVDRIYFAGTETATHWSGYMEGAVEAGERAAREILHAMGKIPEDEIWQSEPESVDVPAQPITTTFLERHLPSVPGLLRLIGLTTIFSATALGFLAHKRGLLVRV
Experimental: as §1, §2

[3] = tested on: H3K4Me2 in LNCaP cells; experiment: Western blot of histone H3 marks in LNCaP cells; assay type: cell-based
Text: Histone extracts were isolated as described previously. […] Data are presented from one representative experiment.
H3K4Me was detected using a polyclonal rabbit antibody (abcam ab8895). H3K4Me2 was detected using a monoclonal rabbit antibody (abcam ab32356). H3K4Me3 was detected using a polyclonal rabbit antibody (abcam ab8580). […] H3K9Me2 was detected using a monoclonal mouse antibody (abcam ab1220). H3K36Me3 was detected using a polyclonal rabbit antibody (abcam ab9050). H3K9Ac was detected using a polyclonal rabbit antibody (abcam ab4441). Total H3 was detected using a polyclonal rabbit antibody (abcam ab1791). LSD1 was detected using a polyclonal rabbit antibody (abcam ab17721). Actin was detected using a monoclonal mouse antibody (Sigma A1978).

[4] = tested on: H3K4Me2 in H460 cells; experiment: Western blot of H3K4Me2 in H460 cells; assay type: cell-based; conditions: 48 h, compared with LNCaP
[5] = tested on: H3K4Me2 in A549 cells; experiment: Western blot of H3K4Me2 in A549 cells; assay type: cell-based; conditions: 48 h
[6] = tested on: H3K4Me2 in MB-231 cells; experiment: Western blot of H3K4Me2 in MB-231 cells; assay type: cell-based; conditions: 48 h
[7] = tested on: H460 cells; experiment: [3H] thymidine incorporation assay in H460 cells; assay type: cell-based; conditions: Homo sapiens, NCI-H460, 48 h, read-out: IC50 of cellular proliferation rate (3H-thymidine incorporation)
[8] = tested on: LNCaP cells; experiment: [3H] thymidine incorporation assay in LNCaP cells; assay type: cell-based; conditions: Homo sapiens, 48 h, read-out: IC50 of cellular proliferation rate (3H-thymidine incorporation)
Experimental: The effects of bizine on cell proliferation using a ^3H-thymidine incorporation assay were examined as a measure of the rate of DNA synthesis.
6 hours prior to harvesting cells, 10 μL of 0.1 mCi/mL Thymidine [methyl-3H] (ARC ART0178) was added to each well. The cells were then harvested (PerkinElmer) and radioactivity was measured with a liquid scintillation counter (PerkinElmer MicroBeta).

[9] = tested on: Immature primary cortical neurons; experiment: Oxidative toxicity (HCA) and neuron viability assay (MTT); assay type: cell-based, Sprague Dawley rats; conditions: 0.5 μM, 5 mM HCA, MTT
Experimental: The next day cells were rinsed and then placed in medium containing 5 mM HCA. […] The next day, cell viability was assessed by the MTT assay (Promega). […] The two-way ANOVA followed by the Bonferroni posttest was used to measure statistical significance. p<0.05 was considered to be statistically significant. Each bar represents four different rat cultures.

[10] = molecular target: T3, GST-LSD1 (Homo sapiens, UniProt O60341)
[11] = molecular target: T3, GST-LSD1; experiment: MassSQUIRM LSD1 inhibition assay; assay type: biochemical; design: made in house; host or cells: E. coli; conditions: 50 μM inhibitor, 215 nM GST-LSD1, 30 min, 25° C.
Experimental: MassSQUIRM inhibition experiments were performed in triplicate as described previously. […] The demethylase reactions were run at 25° C. for 30 min and then analyzed as reported previously.

SMILES: Cl.Cl.NNCCc1ccc(NC(=O)CCCc2ccccc2)cc1 [Compound 12d, N-[4-(2-Hydrazinylethyl)phenyl]-4-phenylbutanamide dihydrochloride]
- k(inact) [1]: 0.30 ± 0.11 min⁻¹
- k(inact) [2]: 0.26 ± 0.14 min⁻¹
- time of compound exposure at which changes in H3K4Me2 could be detected ([3]; 10 μM): ≤ 6 h
- EC50 ([3]; Homo sapiens, 48 h, Western blot, read-out: EC50 of increase in H3K4Me2 signal): ~2 µM
- effects on H3K4Me2 levels (in words) [4]: comparable dose-response effects
- concentration required for reproducible increases in H3K4Me2 [5]: 20 µM
- concentration required for reproducible increases in H3K4Me2 [6]: 20 µM
- IC50 [7]: 14 µM
- IC50 [8]: 16 µM
- survival of neurons after HCA-treatment [9]: significantly enhanced survival of neurons
- k(inact) ([10]; GST-LSD1, peroxidase-coupled assay, dihydrochloride): 0.15 min⁻¹ and 0.15 ± 0.017 min⁻¹
- LSD1 inhibitory potency (in words) ([10]; structure-activity comment on Table 1): most potent LSD1 inhibitor
- LSD1 inhibition in MassSQUIRM assay (in words) [11]: very substantial LSD1 inhibition
